Columns and labels:
[1] = test system: BT-474 cells (breast cancer HER2-high CDX model); assay: In vivo efficacy of GQ01 with chemotherapies in human breast cancer CDX model, BT-474 (Example 5); design: species or system BALB/c nude mice; conditions: GQ01 5 mg/kg single dose, capecitabine 300 mg/kg QD 2 weeks, combination 5 + 300 mg/kg; for TGI (%): day 25; for Tumor volume (mm^3), Mean ± SEM: end day (day 25)
Method: I. Breast cancer tumor cells were passaged in vivo from BT-474 cells (ATCC, Lot #HTB-20). The cells in exponential growth stage were collected and counted for tumor inoculation. 0.2 mL of matrix gel buffer (PBS: Matrigel=1:1) was used to subcutaneously inject 2×10^6 cells into the right flank of SPF female BALB/c nude mice aged 6-8 weeks. Four days before cell inoculation, BALB/c nude mice had been subcutaneously inoculated with estrogen tablet.
(§1) II. 10 days after inoculation, the tumor diameter was measured with a caliper and the tumor volume was calculated according to the formula V=0.5 a×b2 (wherein a is the long diameter of the tumor and b is the short diameter of the tumor). […] Each group included 6 mice. The day of first administration was defined as day 0. […] The tumor volume of mice in each group was measured twice a week.

[2] = test system: HCC1954 cells (breast cancer HER2-high CDX model); assay: In vivo efficacy of GQ01 with chemotherapies in human breast cancer CDX model, HCC1954 (Example 6); design: species or system BALB/c nude mice; conditions: table prints GQ01 5 mg/kg and 5 + 300 mg/kg, text GQ01 2 mg/kg single dose, capecitabine 300 mg/kg QD 2 weeks; for Tumor volume (mm^3), Mean ± SEM: end day (day 32); for TGI (%): text: day 32, footnote: day 25
Method: I. HCC1954 cells in exponential growth stage were collected and counted for tumor inoculation. 0.2 mL of matrix gel buffer (PBS: Matrigel=1:1) was used to subcutaneously inject 1×10^6 cells into the right flank of SPF female BALB/c nude mice aged 6-8 weeks.
as §1, with “9” for “10”

[3] = test system: human breast cancer HER2 IHC 3+ PDX model; assay: In vivo efficacy of GQ01 with TKIs in human breast cancer PDX model (Example 1); design: species or system NOD SCID mice; conditions: GQ01 5 mg/kg Q3W×2, combination 5 + 20 mg/kg; for TGI (%): day 77; for Tumor volume (mm^3), Mean ± SEM: end day (day 77)
Method: I. The tumor tissues of PDX model were extracted from the tumor-bearing mice and then transferred to culture medium, cut into small fragments, and inoculated subcutaneously at the right flank of SPF female NOD SCID mice aged 6~8 weeks.
II. The tumor diameter was measured with a caliper and the tumor volume was calculated according to the formula V=0.5 a×b^2 (wherein a is the long diameter of the tumor and b is the short diameter of the tumor). […] The tumor volume of mice in each group was measured twice a week.

[4] = test system: breast cancer HER2 IHC 3+ PDX model (primary resistance to palbociclib); assay: In vivo efficacy of GQ01 with TKIs in human breast cancer PDX model, primary resistance to palbociclib (Example 2); design: species or system NCG mice; conditions: GQ01 5 mg/kg on day 0 and day 28; for TGI (%): day 49; for Tumor volume (mm^3), Mean ± SEM: end day (day 49)
Method: The model was derived from a patient with Stage III invasive breast cancer who developed metastases to lung and bone after surgery.
I. The tumor tissues of PDX model were extracted from the tumor-bearing mice and were transferred to culture medium, cut into small fragments, and inoculated subcutaneously in the right flank of SPF female NCG mice aged 6~8 weeks.
as §1, with “30” for “10”, “a×b^2” for “a×b2”, “mice” for “mice in each group”

[5] = test system: human breast cancer HER2 IHC 3+ PDX model (acquired resistance to trastuzumab and pertuzumab, primary resistance to pyrotinib); assay: In vivo efficacy of GQ01 with TKIs in human breast cancer PDX model resistant to trastuzumab, pertuzumab and pyrotinib (Example 3); design: species or system NCG mice; conditions: for TGI (%): day 42; for TGI (%) / Tumor volume (mm^3), Mean ± SEM: GQ01 3 mg/kg on day 0 and 5 mg/kg on day 21; for Tumor volume (mm^3), Mean ± SEM: end day (day 42)
Method: This model was derived from a patient with Stage III invasive breast cancer, who was assessed as acquired drug resistance to trastuzumab and pertuzumab and primary resistance to pyrotinib based on the history of treatments.
I. The tumor tissues of PDX model were extracted from the tumor-bearing mice and were transferred to culture medium, cut into small fragments, and then inoculated subcutaneously in the right flank of SPF female NCG mice aged 6~8 weeks.
as §1, with “29” for “10”

[6] = test system: gastric cancer HER2 IHC 3+ PDX model; assay: In vivo efficacy of GQ01 with TKIs in human gastric cancer PDX model (Example 4); design: species or system Nu/Nu mice; conditions: for TGI (%): day 35; for TGI (%) / Tumor volume (mm^3), Mean ± SEM: GQ01 10 mg/kg single dose; for Tumor volume (mm^3), Mean ± SEM: end day (day 35); for PD (response status, share of animals): 6 mice per group, GQ01 10 mg/kg
Method: I. The tumor tissues of PDX model were extracted from the tumor-bearing mice and were transferred to RPMI-1640 culture medium, cut into small fragments, and then inoculated subcutaneously in the right flank of SPF female Nu/Nu mice aged 6~8 weeks.
as §1, with “14” for “10”
The response status were calculated based on the diameters or disappearance of target lesions.

[7] = pyrotinib 20 mg/kg QD×2W+QD×2W, listed as pyrotinib
[8] = pyrotinib 20 mg/kg QD day 0-13, 28-41, combination 5 + 20 mg/kg
[9] = pyrotinib 20 mg/kg QD day 0-13, 28-41, combination 5 + 20 mg/kg, listed as pyrotinib
[10] = pyrotinib 20 mg/kg QD day 0-13, 21-34, combination 3/5 + 20 mg/kg
[11] = pyrotinib 20 mg/kg QD day 0-13, 21-34, combination 3/5 + 20 mg/kg, listed as pyrotinib
[12] = pyrotinib 20 mg/kg QD 2 weeks, combination 10 + 20 mg/kg
[13] = pyrotinib 20 mg/kg QD 2 weeks, combination 10 + 20 mg/kg, listed as pyrotinib
[14] = tucatinib 20 mg/kg BID×2W+BID×2W
[15] = tucatinib 20 mg/kg BID×2W+BID×2W, listed as tucatinib
[16] = tucatinib 50 mg/kg QD day 0-13, 28-41, combination 5 + 50 mg/kg
[17] = tucatinib 50 mg/kg QD day 0-13, 28-41, combination 5 + 50 mg/kg, listed as tucatinib
[18] = tucatinib 50 mg/kg QD day 0-13, 21-34, combination 3/5 + 50 mg/kg
[19] = tucatinib 50 mg/kg QD day 0-13, 21-34, combination 3/5 + 50 mg/kg, listed as tucatinib
[20] = tucatinib 50 mg/kg QD 2 weeks, combination 10 + 50 mg/kg
[21] = tucatinib 50 mg/kg QD 2 weeks, combination 10 + 50 mg/kg, listed as tucatinib

## CCCCCOC(=O)Nc1nc(=O)n([C@@H]2O[C@H](C)[C@@H](O)[C@H]2O)cc1F [Capecitabine, capecitabine]
[1]
  TGI (%): 21.01%
  Tumor volume (mm^3), Mean ± SEM: 858 ± 280 mm^3
[1]; listed as capecitabine
  TGI (%): 21.01%
  Tumor volume (mm^3), Mean ± SEM: 858 mm^3
[2]
  Tumor volume (mm^3), Mean ± SEM: 1,183 ± 222 mm^3
  TGI (%): 29.05%
[2]; listed as capecitabine
  Tumor volume (mm^3), Mean ± SEM: 1183 mm^3
  TGI (%): 29.05%

## CCOc1cc2ncc(C#N)c(Nc3ccc(OCc4ccccn4)c(Cl)c3)c2cc1NC(=O)/C=C/[C@H]1CCCN1C [Pyrotinib, pyrotinib]
[3]; pyrotinib 20 mg/kg QD×2W+QD×2W
  TGI (%): 34.93%
  Tumor volume (mm^3), Mean ± SEM: 1108 ± 202 mm^3
[3]; [7]
  TGI (%): 34.93%
  Tumor volume (mm^3), Mean ± SEM: 1108 mm^3
[4]; [8]
  TGI (%): −2.65%
  Tumor volume (mm^3), Mean ± SEM: 740.71 ± 146.76 mm^3
[4]; [9]
  TGI (%): −2.65%
  Tumor volume (mm^3), Mean ± SEM: 741 mm^3
[5]; [10]
  TGI (%): 10.08%
  Tumor volume (mm^3), Mean ± SEM: 1333.21 ± 217.85 mm^3
[5]; [11]
  TGI (%): 10.08%
  Tumor volume (mm^3), Mean ± SEM: 1333 mm^3
[6]; [12]
  TGI (%): 83.09%
  Tumor volume (mm^3), Mean ± SEM: 233.72 ± 39.7 mm^3
[6]; [13]
  TGI (%): 83.09%
  Tumor volume (mm^3), Mean ± SEM: 234 mm^3
[6]; pyrotinib arm table, pyrotinib 20 mg/kg, dash = no animal in this class
  PD (response status, share of animals): 83.33%

## Cc1cc(Nc2ncnc3ccc(NC4=NC(C)(C)CO4)cc23)ccc1Oc1ccn2ncnc2c1 [Tucatinib, tucatinib]
[3]; [14]
  TGI (%): 51.08%
  Tumor volume (mm^3), Mean ± SEM: 879 ± 216 mm^3
[3]; [15]
  TGI (%): 51.08%
  Tumor volume (mm^3), Mean ± SEM: 879 mm^3
[4]; [16]
  TGI (%): −1.09%
  Tumor volume (mm^3), Mean ± SEM: 732.33 ± 137.71 mm^3
[4]; [17]
  TGI (%): −1.09%
  Tumor volume (mm^3), Mean ± SEM: 732 mm^3
[5]; [18]
  TGI (%): −6.46%
  Tumor volume (mm^3), Mean ± SEM: 1557.77 ± 178.71 mm^3
[5]; [19]
  TGI (%): −6.46%
  Tumor volume (mm^3), Mean ± SEM: 1558 mm^3
[5]; tucatinib 50 mg/kg QD day 0-13, 21-34
  response of the model to treatment, in words: doesn't respond
[6]; [20]
  TGI (%): 48.94%
  Tumor volume (mm^3), Mean ± SEM: 399.97 ± 43.87 mm^3
[6]; [21]
  TGI (%): 48.94%
  Tumor volume (mm^3), Mean ± SEM: 400 mm^3
[6]; tucatinib arm table, tucatinib 50 mg/kg
  PD (response status, share of animals): 100%

Source: US20260263624A1, “COMBINATION OF ANTIBODY-DRUG CONJUGATE AND CANCER THERAPY, AND USE THEREOF” (GENEQUANTUM HEALTHCARE (SUZHOU) CO., LTD., priority 2023, published 2026)
